In patent US12060438B2, “Cyclic peptide compounds and methods of use thereof” (MODULATION THERAPEUTICS, INC., priority 2018, dated 2024):
Entries after “also recorded” stand apart in the source; their conditions may differ. Starred links: 1 amine or outer side, 2 acyl side, 3 side chain; linkers in the order of their positions; H or OH if unused. Positions of bridges follow the written chain, without caps; N, C: chain ends. Non-standard residues stand in square brackets, D forms with d. Residues, ends and D or L forms follow the SMILES beside them. *: point of attachment. dProlinol(O-CH2CO) = O=C(COC[C@H]1CCCN1[*:1])[*:2]; N(2-Aminoethyl)Gly = O=C(CN(CCN[*:3])[*:1])[*:2]; X1 = N[C@@H](CS)C(=O)NCCCS(=O)(=O)*; Nle = CCCC[C@H](N)C(=O)O

System: U266 myeloma cell line
Test: Cell death in U266 myeloma cell line (Dapi dead / Fluo-4 live staining, imaging)
Type: cell-based
Settings: Dapi for dead cells, Fluo-4 for live cells, imaged at 6 hours, n=3, compared with Compound A (FIG. 1)
Protocol: Compound 2 was tested alongside Compound A and cell death was measured in a U266 myeloma cell line. Dapi staining was used for detection of dead cells and Fluo-4 was used for staining live cells. Cells were then imaged at 6 hours using a Cytation 5 Biotek imaging plate reader.

With CCCC[C@@H]1NC(=O)CN(S(=O)(=O)CCCNC(=O)[C@@H](N)CS)CCNC(=O)[C@H](CCCCN)NC(=O)[C@H](CC(C)C)NC(=O)[C@H](CCCCN)NC(=O)[C@H](CC(C)C)NC(=O)[C@H](CCCCN)NC(=O)COC[C@H]2CCCN2C(=O)[C@H](Cc2c[nH]c3ccccc23)NC(=O)[C@H](C)NC(=O)[C@H](C(C)C)NC(=O)[C@H](C(C)C)NC1=O [Compound 2] (X1-[N(2-Aminoethyl)Gly][Nle]VVAW[dProlinol(O-CH2CO)]KLKLK; lactam 1-C) the “potency (cell death)” value was “increased potency relative to Compound A; also recorded: more potency compared to Compound A”.
